The source of these data is patent US20260137671A1, “PDK4 as a Cell-Aging Intervention Target and Its Use in Chemotherapy and Anticancer” (Shanghai Institute of Nutrition and Health, Chinese Academy …, priority 2022, published 2026).

The subject of series [1] is cancer cells in tumors (PC3/PSC27 xenografts). The series is described as follows: DNA damage and apoptosis in tumors by IHC (γ-H2AX, cleaved caspase 3). Conditions: for DNA damage and apoptosis in cancer cells: tumors dissected 7 days after initiation of treatment. The class given is in vivo, SCID mice. From the text: FIG. 69. Statistical evaluating values of DNA-damaged cells and apoptotic cells in analyzed tumor specimens, represented as a percentage of cells positively stained by IHC with antibodies against γ-H2AX or caspase 3 (cleaved).
FIG. 70. Representative IHC images of caspase 3 (cleaved) in tumors at the end of therapeutic regimens. Biopsies of placebo-treated animals served as negative controls for drug-treated mice. Scale bar, 100 μm.
Considering the primary in vivo expressive results with MIT and/or PDK4-IN treatment, the inventors next asked how pharmacologically targeting PDK4 could enhance the therapeutic response of tumors. To disclose the possible mechanism(s), the inventors chose to dissect tumors from animals 7 days after initiation of treatment, a timepoint right before the development of resistant colonies.

In series [2] the test system is mice with natural senescence. The series is described as follows: PDK4-IN intervention in naturally aged mice: tissue senescence, physical function, serum markers. The series is classed as in vivo, C57BL/6J mice. On the procedure:
FIG. 83. Schematic design of 20-month-old C57BL/6J mice undergoing either placebo or PDK4-IN intervention.
All testing began on day 5 after the last placebo or drug treatment. Maximum walking speed was assessed using the accelerated RotaRod System (TSE System, Chesterfiled, MO). The mice were trained on the RotaRod for 3 days at speeds of 4, 6 and 8 r.p.m, lasted for 200 seconds on the 1st, 2nd and 3rd days. On the test day, the mice were placed on the RotaRod, and the test was performed starting at a speed of 4 r.p.m. The rotation speed was accelerated from 4 to 40 r.p.m at intervals of 5 minutes. When the mice fell off the RotaRod, the speed was recorded. The final results were averaged from 3 or 4 trials and normalized to baseline speed. The mice that had been trained within the previous two months were no longer trained.
Forelimb grip strength (N) was measured using a Grip Strength Meter (Columbus Instruments, Columbus, OH), and the results were averaged from more than 10 trials. For the hanging endurance test, the mice were placed on a 2 mm thick metal wire, while the later was 35 cm above a mat. The mice were only allowed to grasp the wire with their forelimbs, and the hang time was normalized to body weight and expressed as hang duration (sec)×body weight (g). The results were the average of 2 to 3 trials per mouse. Their daily activity and food intake were monitored for 24 h (12 hours of light and 12 hours of dark) by a Comprehensive Laboratory Animal Monitoring System (CLAMS). The CLAMS system was equipped with an Oxymax Open Circuit Calorimeter System (Columbus Instruments). For treadmill performance, the mice were acclimatized to run on an electric running machine (Columbus Instruments) at a 5° incline, for 3 days of training, lasted for 5 minutes each day, started at a speed of 5 m/min for 2 minutes, then accelerated to 7 m/min for 2 minutes, then 9 m/min for 1 minute. On the day of the test, the mice ran on the treadmill at an initial speed of 5 m/min for 2 min, and then the speed increased by 2 m/min every 2 min until the mice were exhausted. Fatigue was defined as the inability of mice to return to the treadmill despite mild electrical and mechanical stimulation. The distance was recorded after the test, and the total work (KJ) was calculated with the following formula: mass (kg)×g (9.8 m/s2)×distance (m)×sin (5°).
With the increasing global senescent trend in recent years, drugs that can effectively alleviate the senescent process have become a common interest among scientists and pharmaceutical companies worldwide. The inventors queried whether manipulation of PDK4 activities can control various senescence-associated phenotypes. Therefore, the inventors chose to treat normal 20-month-old wild-type mice with PDK4-IN (PDK4-IN 10 mg/kg via intraperitoneal injection once every 2 weeks) for 4 months, after which physical function or physical ability was experimentally determined in mice with natural senescence (FIG. 83).

The test system of series [3] is mice aged 24 to 27 months. The series is described as follows: Lifespan appraisal of late-life mice. The following applies: PDK4-IN every two weeks, P<0.001 vs Vehicle. The series is classed as in vivo, C57BL/6 mice. On the procedure: FIG. 91. Schematic design for lifespan appraisal of mice. Mice aged 24 to 27 months were administered either Vehicle or PDK4-IN every two weeks, with continuous monitoring of their survival and recording of maximum lifespan.
C57BL/6 mice aged 24 to 27 months were administered either Vehicle or PDK4-IN every two weeks intraperitoneally. The median survival of animals in each group was calculated and indicated. ***, P<0.001.
The earliest deaths occurred approximately 2 months after the last physical function test. C57BL/6 mice aged 19 to 21 months were housed at 3-5 animals per cage. Same as the transplanted mice, the mice were sorted by body weight and randomly assigned to each group, and treated in either control (vehicle) or drug (PDK4) group by persons blinded to the design of the preclinical trial. From the age of 24-27 months, the mice were treated with vehicle or PDK4-IN every 2 weeks, […] for 3 consecutive days at each time. During the course of the study, some mice were removed from their original cages in order to minimize the animal housing stress caused by long-term housing in a single cage. RotaRod and hanging tests were performed monthly because these tests were sensitive and noninvasive. […] During the experiment, no mice were excluded due to fighting, accidental death or dermatitis. For biostatistics, a Cox proportional hazard model was used for survival analysis. […]

[4] abbreviates: 20-month-old mice, PDK4-IN 10 mg/kg i.p. once every 2 weeks for 4 months.

Turning to `O=C1c2ccccc2C(=O)c2c1cccc2-c1cnn(C2CCNCC2)c1` [PDK4-IN], the “caspase 3 cleavage (IHC)” value in series [1] (PDK4-IN added to MIT) is “further enhanced”. The “DNA damage and apoptosis in cancer cells” value in series [1] (PDK4-IN upon combination with MIT) is “prominent efficacy in enhancing these therapeutic indices”. For the same compound, the “DNA damage and apoptosis in cancer cells” value in series [1] (single agent) was “neither caused typical DDR nor induced cell apoptosis”. Moreover, in series [2] (setting [4]), the “SA-β-gal positivity in liver, lung, prostate and myocardial tissues of aged animals” value is “partially reversed”; the “age-dependent expansion of alveoli” value is “effectively controlled”; the grip strength entry is reported as “significantly improved”; the motor skills entry is “significantly improved”. In series [2] (aged animals receiving PDK4-IN treatment), the serum lactate levels result is reported as “significant reduction”. Besides, in series [2] (aged mice treated with PDK4-IN), the “age-related elevation of serum alanine aminotransferase (ALT)” value is on record as “significantly avoided these changes”, the “age-related elevation of serum aspartate aminotransferase (AST)” value is on record as “significantly avoided these changes”, the “age-related elevation of serum lactate dehydrogenase (LDH)” value is on record as “significantly avoided these changes” and the body weight result is listed as “essentially unaffected”. The food intake entry in series [2] (aged mice treated with PDK4-IN) is “essentially unaffected”. The “lifespan during the intervention period” value in series [3] was “significantly extended the lifespan”.
